Experimental data from ChEMBL document CHEMBL3217485, “Understanding and overcoming aminoglycoside resistance caused by N-6'-acetyltransferase” (Medchemcomm, 2012).
Converted amounts (≈) assume the structure as drawn. Values belong to the compound of their own block, whether it stands above or below them. The source made the active and inactive calls. The rule behind the calls is not given here. Where a SMILES comes first, the peptide text is derived from it. [ ]: non-standard residue; d: D form. Orn = NCCC[C@H](N)C(=O)O

Key:
Aac(6')-Ii protein = Aac(6')-Ii protein (Enterococcus faecium, UniProt Q47764); test: Inhibition of Enterococcus faecium AAC(6')-li
[1] = Inhibition of AAC(6')-li (unknown origin)
[2] = Binding affinity to AAC(6')-lb (unknown origin)
Escherichia coli [3] = test: Antibacterial activity against kanamycin-resistant Escherichia coli K-12 R5 expressing AAC(6') enzyme; type: functional
Pseudomonas aeruginosa = test: Antibacterial activity against kanamycin-resistant Pseudomonas aeruginosa GN315 expressing AAC(6') enzyme; type: functional
[4] = Inhibition of AAC(6')-le (unknown origin)
[5] = Activity at AAC(6')-li (unknown origin)
Escherichia coli [6] = test: Antibacterial activity against Escherichia coli ATCC 25922; type: functional
[7] = Binding affinity to biotinylated Escherichia coli 16S rRNA A-site
[8] = Ratio of Kcat to Km for AAC(6')-li (unknown origin)

Chain of Aac(6')-Ii protein (Q47764 whole entry): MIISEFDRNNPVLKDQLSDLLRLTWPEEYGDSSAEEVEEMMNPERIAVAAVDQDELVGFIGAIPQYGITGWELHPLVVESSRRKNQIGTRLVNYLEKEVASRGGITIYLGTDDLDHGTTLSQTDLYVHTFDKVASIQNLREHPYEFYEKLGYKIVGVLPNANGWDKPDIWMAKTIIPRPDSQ

Ki (Aac(6')-Ii protein): ≥ 500 µM
Compound: CC(C)(CO)[C@@H](O)C(=O)NCCC(=O)NCCSCC(=O)NC[C@H]1O[C@H](O[C@H]2[C@H](O)[C@@H](O)[C@H](N)C[C@@H]2N)[C@H](N)[C@@H](O)[C@@H]1O

Ki (Aac(6')-Ii protein): ≥ 200 µM
Compound: CC(=O)CC(=O)NCC(C)(C)[C@@H](O)C(=O)NCCC(=O)NCCSCC(=O)NC[C@H]1O[C@H](O[C@H]2[C@H](O)[C@@H](O)[C@H](N)C[C@@H]2N)[C@H](N)[C@@H](O)[C@@H]1O

Ki [1]: 5.2 µM
Compound: CC(C)(COP(=O)(O)OP(=O)(O)OC[C@H]1O[C@@H](n2cnc3c(N)ncnc32)[C@H](O)[C@@H]1OP(=O)(O)O)[C@@H](O)C(=O)NCCC(=O)NCCSCCCCCC(=O)NC[C@H]1O[C@H](O[C@H]2[C@H](O)[C@@H](O)[C@H](N)C[C@@H]2N)[C@H](N)[C@@H](O)[C@@H]1O

Kd [2]: 20 µM
Compound: N#Cc1ccc(O[C@H]2C[C@H](N)C[C@@H]2N)cc1

Compound: CNC[C@H]1O[C@H](O[C@H]2[C@H](O)[C@@H](O[C@@H]3O[C@@H](CO)[C@H](O)[C@@H](N)[C@@H]3O)[C@H](N)C[C@@H]2N)[C@H](O)[C@@H](O)[C@@H]1O
MIC (Escherichia coli [3]): 1.56 µg/mL (≈ 3.13 µM)
MIC (Pseudomonas aeruginosa): > 100 µg/mL

Compound: CCNC[C@H]1O[C@H](O[C@H]2[C@H](O)[C@@H](O[C@@H]3O[C@@H](CO)[C@H](O)[C@@H](N)[C@@H]3O)[C@H](NC(=O)[C@@H](O)CCN)C[C@@H]2N)[C@H](O)[C@@H](O)[C@@H]1O
MIC (Escherichia coli [3]): 1.56 µg/mL (≈ 2.54 µM)
MIC (Pseudomonas aeruginosa): 100 µg/mL (≈ 163 µM)

Kd [2]: 41 µM
Compound: N[C@@H]1C[C@H](N)[C@@H](O)C1

inhibition [1]: inactive
IC50 [4]: 38 µM
Compound: H-KWKSFIKKLTSAAKKVTTAAKPLTK-OH

Ki (Aac(6')-Ii protein): ≥ 200 µM
Compound: CC(=O)CC(=O)N(CCCc1ccccc1)CC(C)(C)[C@@H](O)C(=O)NCCC(=O)NCCSCC(=O)NC[C@H]1O[C@H](O[C@H]2[C@H](O)[C@@H](O)[C@H](N)C[C@@H]2N)[C@H](N)[C@@H](O)[C@@H]1O

Compound: CC(C)C[C@@H]1NC(=O)[C@H](CCCN)NC(=O)[C@H](C(C)C)NC(=O)[C@@H]2CCCN2C(=O)[C@@H](Cc2ccccc2)NC(=O)[C@H](CC(C)C)NC(=O)[C@H](CCCN)NC(=O)[C@H](C(C)C)NC(=O)[C@@H]2CCCN2C(=O)[C@@H](Cc2ccccc2)NC1=O [GRAMICIDIN S] (cyclo(L[dF]PV[Orn]L[dF]PV[Orn]))
inhibition [1]: inactive
IC50 [4]: 14 µM

Compound: NC[C@@H]1CC[C@@H](N)[C@@H](O[C@H]2[C@H](O)[C@@H](O[C@H]3O[C@H](CO)[C@@H](O)[C@H](N)[C@H]3O)[C@H](N)C[C@@H]2N)O1 [DIBEKACIN]
MIC (Escherichia coli [3]): 25 µg/mL (≈ 55.4 µM)
MIC (Pseudomonas aeruginosa): > 100 µg/mL

Km [5]: > 500 µM
Compound: NCC(=O)NC[C@H]1O[C@H](O[C@H]2[C@H](O)[C@@H](O)[C@H](N)C[C@@H]2N)[C@H](N)[C@@H](O)[C@@H]1O

IC50 [1]: 23 µM
inhibition [4]: inactive
Compound: H-ILKKWPWWPWRRK-OH

Km [5]: 28.7 µM
kcat [5]: 0.26 s⁻¹
MIC (Escherichia coli [6]): 6.25 µM (≈ 5.46 µg/mL)
kcat/Km [8]: 0.93 ×10⁴ /M/s
Compound: CN(CCCCN(C)C[C@@H](O)CO[C@@H]1[C@@H](O)[C@H](N)C[C@H](N)[C@H]1O[C@H]1O[C@H](CN)[C@@H](O)[C@H](O)[C@H]1N)C[C@@H](O)CO[C@@H]1[C@@H](O)[C@H](N)C[C@H](N)[C@H]1O[C@H]1O[C@H](CN)[C@@H](O)[C@H](O)[C@H]1N
Kd [7]: 0.04 µM

Ki (Aac(6')-Ii protein): ≥ 500 µM
Compound: CC(C)(CO)[C@@H](O)C(=O)NCCC(=O)NCCSCCCCC(=O)NC[C@H]1O[C@H](O[C@H]2[C@H](O)[C@@H](O)[C@H](N)C[C@@H]2N)[C@H](N)[C@@H](O)[C@@H]1O

Kd [2]: 57 µM
Compound: Nc1cccc(C(=O)O[C@H]2C[C@H](N)C[C@@H]2N)c1

IC50 [1]: 13 µM
inhibition [4]: inactive
Compound: CC[C@H](C)[C@H](N)C(=O)N[C@@H](CC(C)C)C(=O)N1CCC[C@H]1C(=O)N[C@@H](Cc1c[nH]c2ccccc12)C(=O)N[C@@H](CCCCN)C(=O)N[C@@H](Cc1c[nH]c2ccccc12)C(=O)N1CCC[C@H]1C(=O)N[C@@H](Cc1c[nH]c2ccccc12)C(=O)N[C@@H](Cc1c[nH]c2ccccc12)C(=O)N1CCC[C@H]1C(=O)N[C@@H](Cc1c[nH]c2ccccc12)C(=O)N[C@@H](CCCN=C(N)N)C(=O)N[C@@H](CCCN=C(N)N)C(N)=O

IC50 [1]: 24 µM
inhibition [4]: inactive
Compound: H-KWKKFIKSLTKAAKTVVKTAKKPLIV-OH

Km [5]: 83.6 µM
kcat [5]: 1.89 s⁻¹
MIC (Escherichia coli [6]): 125 µM (≈ 103 µg/mL)
kcat/Km [8]: 2.26 ×10⁴ /M/s
Compound: NC[C@H]1O[C@H](O[C@H]2[C@H](OCC(=O)NCCCCCNC(=O)CO[C@@H]3[C@@H](O)[C@H](N)C[C@H](N)[C@H]3O[C@H]3O[C@H](CN)[C@@H](O)[C@H](O)[C@H]3N)[C@@H](O)[C@H](N)C[C@@H]2N)[C@H](N)[C@@H](O)[C@@H]1O
Kd [7]: 0.8 µM
